Laboratory results reported in ChEMBL document CHEMBL4507279, “Data for DCP probe BI-9627” (2021).

Assays:
[1] = biological target: Proto-oncogene tyrosine-protein kinase Src (Homo sapiens) (UniProt P12931); conditions: Compound concentration 1000.0 nM
[2] = biological target: Tyrosine-protein kinase receptor TYRO3 (Homo sapiens) (UniProt Q06418); conditions: Compound concentration 1000.0 nM
[3] = biological target: Serine/threonine-protein kinase WNK4 (Homo sapiens) (UniProt Q96J92); conditions: Compound concentration 1000.0 nM
[4] = biological target: Focal adhesion kinase 1 (Homo sapiens) (UniProt Q05397); conditions: Compound concentration 1000.0 nM
[5] = biological target: Ribosomal protein S6 kinase alpha-4 (Homo sapiens) (UniProt O75676); conditions: Compound concentration 1000.0 nM
Chain of Ribosomal protein S6 kinase alpha-4 (Homo sapiens) (O75676 whole entry, looked up, canonical isoform): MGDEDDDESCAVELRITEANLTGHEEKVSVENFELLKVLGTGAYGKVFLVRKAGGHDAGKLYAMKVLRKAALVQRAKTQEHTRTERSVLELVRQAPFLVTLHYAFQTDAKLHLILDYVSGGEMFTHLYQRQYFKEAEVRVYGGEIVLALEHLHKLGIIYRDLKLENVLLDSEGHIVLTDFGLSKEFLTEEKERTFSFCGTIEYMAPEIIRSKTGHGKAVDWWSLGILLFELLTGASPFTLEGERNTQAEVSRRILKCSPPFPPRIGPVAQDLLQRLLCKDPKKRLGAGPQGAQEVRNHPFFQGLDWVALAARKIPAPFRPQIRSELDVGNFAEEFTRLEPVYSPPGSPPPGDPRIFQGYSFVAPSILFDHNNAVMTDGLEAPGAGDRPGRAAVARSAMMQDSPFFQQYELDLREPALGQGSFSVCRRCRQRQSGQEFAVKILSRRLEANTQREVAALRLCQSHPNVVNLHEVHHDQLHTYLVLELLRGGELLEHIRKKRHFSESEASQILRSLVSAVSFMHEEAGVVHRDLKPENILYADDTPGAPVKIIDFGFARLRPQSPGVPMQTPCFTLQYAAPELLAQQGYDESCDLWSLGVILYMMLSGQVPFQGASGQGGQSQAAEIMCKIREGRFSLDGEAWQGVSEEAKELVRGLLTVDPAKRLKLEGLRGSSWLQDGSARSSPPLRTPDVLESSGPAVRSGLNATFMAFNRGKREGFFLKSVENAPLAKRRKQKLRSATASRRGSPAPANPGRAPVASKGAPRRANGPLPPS

[6] = tested on: Phosphatidylinositol 4,5-bisphosphate 3-kinase catalytic subunit alpha isoform (Homo sapiens), P42336 [E542K]; conditions: Compound concentration 1000.0 nM
[7] = biological target: Mitogen-activated protein kinase 3 (Homo sapiens) (UniProt P27361); conditions: Compound concentration 1000.0 nM
[8] = biological target: Dual specificity mitogen-activated protein kinase kinase 3 (Homo sapiens) (UniProt P46734); conditions: Compound concentration 1000.0 nM
[9] = biological target: Serine/threonine-protein kinase PLK1 (Homo sapiens) (UniProt P53350); conditions: Compound concentration 1000.0 nM
[10] = biological target: T1, Alpha-2A adrenergic receptor (Homo sapiens) (UniProt P08913); conditions: Compound concentration 10.0 uM
T1 sequence (whole entry): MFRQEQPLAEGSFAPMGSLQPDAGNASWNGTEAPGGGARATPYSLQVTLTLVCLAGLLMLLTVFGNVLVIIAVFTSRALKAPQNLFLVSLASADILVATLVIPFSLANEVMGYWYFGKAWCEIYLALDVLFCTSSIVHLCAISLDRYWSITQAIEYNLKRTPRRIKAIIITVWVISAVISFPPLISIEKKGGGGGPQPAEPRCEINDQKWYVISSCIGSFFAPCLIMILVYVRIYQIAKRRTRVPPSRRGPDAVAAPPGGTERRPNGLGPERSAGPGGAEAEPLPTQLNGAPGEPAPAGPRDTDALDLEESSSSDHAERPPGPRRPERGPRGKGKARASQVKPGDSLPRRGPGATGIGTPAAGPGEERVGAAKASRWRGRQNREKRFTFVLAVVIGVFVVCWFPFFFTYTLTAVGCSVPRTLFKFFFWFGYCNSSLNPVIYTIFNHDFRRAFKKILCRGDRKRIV

[11] = biological target: Serine/threonine-protein kinase PLK3 (Homo sapiens) (UniProt Q9H4B4); conditions: Compound concentration 1000.0 nM
[12] = biological target: Serine/threonine-protein kinase 3 (Homo sapiens) (UniProt Q13188); conditions: Compound concentration 1000.0 nM
[13] = biological target: Insulin-like growth factor 1 receptor (Homo sapiens) (UniProt P08069); conditions: Compound concentration 1000.0 nM
[14] = biological target: Serine/threonine-protein kinase LATS2 (Homo sapiens) (UniProt Q9NRM7); conditions: Compound concentration 1000.0 nM
[15] = biological target: Calcium/calmodulin-dependent protein kinase type 1B (Homo sapiens) (UniProt Q6P2M8); conditions: Compound concentration 1000.0 nM
[16] = biological target: Mitogen-activated protein kinase 13 (Homo sapiens) (UniProt O15264); conditions: Compound concentration 1000.0 nM
[17] = biological target: Protein-tyrosine kinase 2-beta (Homo sapiens) (UniProt Q14289); conditions: Compound concentration 1000.0 nM
Chain of Protein-tyrosine kinase 2-beta (Homo sapiens) (Q14289 whole entry, looked up): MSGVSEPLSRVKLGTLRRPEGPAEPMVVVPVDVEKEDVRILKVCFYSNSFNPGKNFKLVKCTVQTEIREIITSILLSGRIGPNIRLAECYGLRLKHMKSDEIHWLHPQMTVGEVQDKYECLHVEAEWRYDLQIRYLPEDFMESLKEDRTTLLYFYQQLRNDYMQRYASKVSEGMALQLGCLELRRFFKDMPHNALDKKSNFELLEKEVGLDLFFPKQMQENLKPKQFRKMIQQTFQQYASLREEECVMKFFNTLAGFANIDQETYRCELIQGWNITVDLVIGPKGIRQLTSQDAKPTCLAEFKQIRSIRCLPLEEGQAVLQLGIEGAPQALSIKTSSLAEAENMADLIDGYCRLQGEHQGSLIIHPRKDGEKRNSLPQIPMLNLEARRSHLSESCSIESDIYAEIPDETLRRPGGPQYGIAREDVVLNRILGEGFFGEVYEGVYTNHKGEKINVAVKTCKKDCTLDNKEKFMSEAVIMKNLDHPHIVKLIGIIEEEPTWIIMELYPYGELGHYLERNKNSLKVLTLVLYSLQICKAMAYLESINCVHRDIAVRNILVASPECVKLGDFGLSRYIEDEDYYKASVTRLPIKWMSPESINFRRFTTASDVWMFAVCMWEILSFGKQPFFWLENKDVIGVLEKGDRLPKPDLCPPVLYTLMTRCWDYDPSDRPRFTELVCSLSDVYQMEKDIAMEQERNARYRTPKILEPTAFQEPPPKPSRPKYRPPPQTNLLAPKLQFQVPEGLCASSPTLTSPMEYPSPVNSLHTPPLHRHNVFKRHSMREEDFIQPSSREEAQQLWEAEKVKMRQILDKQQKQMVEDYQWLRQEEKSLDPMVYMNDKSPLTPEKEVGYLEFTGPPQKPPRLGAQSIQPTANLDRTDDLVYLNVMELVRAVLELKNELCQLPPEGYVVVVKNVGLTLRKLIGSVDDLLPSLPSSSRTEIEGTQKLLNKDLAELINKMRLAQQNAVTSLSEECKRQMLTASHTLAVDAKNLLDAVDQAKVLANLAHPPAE

[18] = biological target: G protein-coupled receptor kinase 3 (Homo sapiens) (UniProt P35626); conditions: Compound concentration 1000.0 nM
[19] = tested on: Mast/stem cell growth factor receptor Kit (Homo sapiens), P10721 [D816H]; conditions: Compound concentration 1000.0 nM
[20] = biological target: Discoidin domain-containing receptor 2 (Homo sapiens) (UniProt Q16832); conditions: Compound concentration 1000.0 nM
[21] = biological target: Serine/threonine-protein kinase SIK3 (Homo sapiens) (UniProt Q9Y2K2); conditions: Compound concentration 1000.0 nM
[22] = biological target: GABA-A receptor; anion channel (Rattus norvegicus) (UniProt O09028+P15431+P18506+P18508+P19969+P20236+P23574+P23576+P28471+P28473+P30191+P62813+P63079+P63138+Q91ZM7+Q9ES14); conditions: Compound concentration 10.0 uM
[23] = biological target: Casein kinase II subunit alpha' (Homo sapiens) (UniProt P19784); conditions: Compound concentration 1000.0 nM
[24] = biological target: Mitogen-activated protein kinase kinase kinase kinase 2 (Homo sapiens) (UniProt Q12851); conditions: Compound concentration 1000.0 nM
Chain of Mitogen-activated protein kinase kinase kinase kinase 2 (Homo sapiens) (Q12851 whole entry): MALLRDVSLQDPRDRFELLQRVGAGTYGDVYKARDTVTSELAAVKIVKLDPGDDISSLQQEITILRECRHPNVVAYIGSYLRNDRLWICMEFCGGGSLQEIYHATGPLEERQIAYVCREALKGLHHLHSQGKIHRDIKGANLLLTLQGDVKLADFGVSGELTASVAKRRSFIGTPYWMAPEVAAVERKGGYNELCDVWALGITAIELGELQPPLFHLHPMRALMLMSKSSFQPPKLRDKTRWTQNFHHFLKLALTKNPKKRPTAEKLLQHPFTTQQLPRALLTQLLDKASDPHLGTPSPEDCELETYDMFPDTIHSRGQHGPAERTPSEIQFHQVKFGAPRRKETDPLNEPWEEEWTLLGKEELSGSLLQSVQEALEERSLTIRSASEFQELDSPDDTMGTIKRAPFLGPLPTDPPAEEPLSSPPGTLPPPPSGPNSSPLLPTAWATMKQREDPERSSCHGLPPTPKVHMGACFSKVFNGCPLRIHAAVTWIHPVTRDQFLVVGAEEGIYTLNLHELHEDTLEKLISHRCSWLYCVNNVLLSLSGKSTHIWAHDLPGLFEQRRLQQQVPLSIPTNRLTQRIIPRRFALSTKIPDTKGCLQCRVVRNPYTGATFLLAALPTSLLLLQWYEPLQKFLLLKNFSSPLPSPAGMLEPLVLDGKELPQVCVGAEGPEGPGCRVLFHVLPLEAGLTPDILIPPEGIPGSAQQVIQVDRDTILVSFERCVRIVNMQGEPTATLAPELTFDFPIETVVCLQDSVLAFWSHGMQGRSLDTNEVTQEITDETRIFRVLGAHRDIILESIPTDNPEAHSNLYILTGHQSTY

[25] = biological target: TRAF2 and NCK-interacting protein kinase (Homo sapiens) (UniProt Q9UKE5); conditions: Compound concentration 1000.0 nM
[26] = biological target: Protein-tyrosine kinase 6 (Homo sapiens) (UniProt Q13882); conditions: Compound concentration 1000.0 nM
[27] = biological target: Serine/threonine-protein kinase 25 (Homo sapiens) (UniProt O00506); conditions: Compound concentration 1000.0 nM
[28] = tested on: Tyrosine-protein kinase ABL1 (Homo sapiens), P00519 [M351T]; conditions: Compound concentration 1000.0 nM
[29] = biological target: Death-associated protein kinase 1 (Homo sapiens) (UniProt P53355); conditions: Compound concentration 1000.0 nM
[30] = biological target: Tyrosine-protein kinase JAK3 (Homo sapiens) (UniProt P52333); conditions: Compound concentration 1000.0 nM
[31] = biological target: Tyrosine-protein kinase FRK (Homo sapiens) (UniProt P42685); conditions: Compound concentration 1000.0 nM
[32] = biological target: Serine/threonine-protein kinase Nek5 (Homo sapiens) (UniProt Q6P3R8); conditions: Compound concentration 1000.0 nM
[33] = biological target: Serine/threonine-protein kinase ULK1 (Homo sapiens) (UniProt O75385); conditions: Compound concentration 1000.0 nM
Chain of Serine/threonine-protein kinase ULK1 (Homo sapiens) (O75385 whole entry): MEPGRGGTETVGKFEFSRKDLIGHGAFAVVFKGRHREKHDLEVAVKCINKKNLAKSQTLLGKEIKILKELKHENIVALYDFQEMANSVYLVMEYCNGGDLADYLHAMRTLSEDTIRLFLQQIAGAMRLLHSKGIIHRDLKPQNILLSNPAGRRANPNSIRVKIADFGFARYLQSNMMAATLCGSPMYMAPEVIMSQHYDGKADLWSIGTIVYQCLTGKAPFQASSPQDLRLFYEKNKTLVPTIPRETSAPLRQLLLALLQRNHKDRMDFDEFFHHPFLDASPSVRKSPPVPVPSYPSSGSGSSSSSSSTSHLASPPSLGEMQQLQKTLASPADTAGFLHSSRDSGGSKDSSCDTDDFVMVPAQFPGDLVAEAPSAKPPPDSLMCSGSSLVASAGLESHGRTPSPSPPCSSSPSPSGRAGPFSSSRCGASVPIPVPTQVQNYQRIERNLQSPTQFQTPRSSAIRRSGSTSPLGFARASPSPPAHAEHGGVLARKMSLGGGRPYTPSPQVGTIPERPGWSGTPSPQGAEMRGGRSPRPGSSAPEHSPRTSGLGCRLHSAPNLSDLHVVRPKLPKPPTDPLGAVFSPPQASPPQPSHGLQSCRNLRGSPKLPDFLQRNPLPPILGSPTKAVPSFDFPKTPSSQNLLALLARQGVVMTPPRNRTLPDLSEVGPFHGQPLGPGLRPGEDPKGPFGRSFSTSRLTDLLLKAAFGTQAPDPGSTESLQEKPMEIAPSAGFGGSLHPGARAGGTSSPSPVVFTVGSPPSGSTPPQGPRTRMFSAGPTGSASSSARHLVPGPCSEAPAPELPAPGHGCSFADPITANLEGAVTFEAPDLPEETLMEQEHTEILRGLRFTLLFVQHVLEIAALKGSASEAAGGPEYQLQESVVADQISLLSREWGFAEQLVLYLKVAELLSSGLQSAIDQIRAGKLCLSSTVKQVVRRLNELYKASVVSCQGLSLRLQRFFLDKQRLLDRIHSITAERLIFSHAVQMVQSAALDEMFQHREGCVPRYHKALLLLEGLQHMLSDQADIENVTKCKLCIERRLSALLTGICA

[34] = biological target: Fibroblast growth factor receptor 1 (Homo sapiens) (UniProt P11362); conditions: Compound concentration 1000.0 nM
[35] = biological target: BDNF/NT-3 growth factors receptor (Homo sapiens) (UniProt Q16620); conditions: Compound concentration 1000.0 nM
Chain of BDNF/NT-3 growth factors receptor (Homo sapiens) (Q16620 32-822 limits assumed): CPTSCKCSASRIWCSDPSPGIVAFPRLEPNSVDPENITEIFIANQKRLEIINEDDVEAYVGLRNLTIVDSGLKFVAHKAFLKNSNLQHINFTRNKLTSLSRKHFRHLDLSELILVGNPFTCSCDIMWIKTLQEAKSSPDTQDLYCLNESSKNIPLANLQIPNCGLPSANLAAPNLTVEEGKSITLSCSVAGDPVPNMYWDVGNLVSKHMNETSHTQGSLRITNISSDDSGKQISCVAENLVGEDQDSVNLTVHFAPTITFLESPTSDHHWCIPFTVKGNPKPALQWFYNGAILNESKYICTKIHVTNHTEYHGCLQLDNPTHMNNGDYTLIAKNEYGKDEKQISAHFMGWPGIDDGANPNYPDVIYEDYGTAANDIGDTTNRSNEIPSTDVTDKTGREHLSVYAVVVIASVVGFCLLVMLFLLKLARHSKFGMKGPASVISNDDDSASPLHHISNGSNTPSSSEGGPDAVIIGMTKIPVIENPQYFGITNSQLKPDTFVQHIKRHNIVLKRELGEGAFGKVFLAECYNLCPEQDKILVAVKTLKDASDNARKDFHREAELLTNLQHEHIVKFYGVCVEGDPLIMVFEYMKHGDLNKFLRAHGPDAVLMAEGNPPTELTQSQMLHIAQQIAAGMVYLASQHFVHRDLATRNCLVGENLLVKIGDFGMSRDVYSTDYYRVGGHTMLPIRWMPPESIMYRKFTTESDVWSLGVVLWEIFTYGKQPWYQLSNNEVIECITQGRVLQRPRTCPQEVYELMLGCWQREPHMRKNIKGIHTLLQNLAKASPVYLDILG

[36] = biological target: Ribosomal protein S6 kinase alpha-2 (Homo sapiens) (UniProt Q15349); conditions: Compound concentration 1000.0 nM
[37] = tested on: Epidermal growth factor receptor (Homo sapiens), P00533 [L858R,T790M]; conditions: Compound concentration 1000.0 nM

Chain of Proto-oncogene tyrosine-protein kinase Src (Homo sapiens) (P12931 2-536 limits assumed): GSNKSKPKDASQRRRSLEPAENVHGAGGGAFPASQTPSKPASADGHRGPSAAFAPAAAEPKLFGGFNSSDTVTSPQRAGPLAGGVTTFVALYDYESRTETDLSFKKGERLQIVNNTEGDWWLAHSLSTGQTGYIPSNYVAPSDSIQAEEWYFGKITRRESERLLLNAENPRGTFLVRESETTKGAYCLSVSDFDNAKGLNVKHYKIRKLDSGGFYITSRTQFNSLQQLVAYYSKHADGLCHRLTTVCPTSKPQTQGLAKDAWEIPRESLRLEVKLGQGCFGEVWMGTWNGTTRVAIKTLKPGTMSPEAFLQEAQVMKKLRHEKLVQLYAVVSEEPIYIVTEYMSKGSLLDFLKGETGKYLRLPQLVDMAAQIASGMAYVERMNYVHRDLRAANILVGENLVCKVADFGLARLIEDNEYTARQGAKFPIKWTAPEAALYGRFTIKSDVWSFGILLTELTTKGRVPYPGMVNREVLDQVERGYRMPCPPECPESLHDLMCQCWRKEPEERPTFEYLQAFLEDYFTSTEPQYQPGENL

With `CC(=O)N1CCC(c2ccc(C(=O)NC3=NCCN3)cc2C(F)(F)F)CC1` [BI 0054] the residual activity [1] was 99%, the residual activity [2] was 89% and the residual activity [3] was 100%. The residual activity [4] was 17%, the residual activity [5] was 100% and the residual activity [6] was 100%. The residual activity [7] was 100%, the residual activity [8] was 87% and the residual activity [9] was 88%. The inhibition [10] was 4.92%, the residual activity [11] was 78% and the residual activity [12] was 100%. For the same molecule, the residual activity [13] was 100%, the residual activity [14] was 91% and the residual activity [15] was 88%. It also gave a residual activity [16] of 75%, a residual activity [17] of 100% and a residual activity [18] of 76%. It also gave a residual activity [19] of 97%, a residual activity [20] of 96% and a residual activity [21] of 100%. For the same molecule, the inhibition [22] was 17%, the residual activity [23] was 100% and the residual activity [24] was 100%. It also gave a residual activity [25] of 68%, a residual activity [26] of 88% and a residual activity [27] of 100%. The residual activity [28] was 100%, the residual activity [29] was 100% and the residual activity [30] was 100%. For the same molecule, the residual activity [31] was 97%, the residual activity [32] was 100% and the residual activity [33] was 85%. For the same molecule, the residual activity [34] was 100%, the residual activity [35] was 100% and the residual activity [36] was 83%. For the same molecule, the residual activity [37] was 100%.

`CC(=O)N1CCC(c2ccc(C(=O)NC(=N)N)cc2C(F)(F)F)CC1` [BI 9627] gave a residual activity [1] of 100%, a residual activity [2] of 100% and a residual activity [3] of 100%. The residual activity [4] was 100%, the residual activity [5] was 100% and the residual activity [6] was 82%. The residual activity [7] was 100%, the residual activity [8] was 100% and the residual activity [9] was 90%. It also gave an inhibition [10] of -0.34%, a residual activity [11] of 82% and a residual activity [12] of 100%. For the same molecule, the residual activity [13] was 100%, the residual activity [14] was 100% and the residual activity [15] was 100%. It also gave a residual activity [16] of 83%, a residual activity [17] of 100% and a residual activity [18] of 92%. The residual activity [19] was 100%, the residual activity [20] was 100% and the residual activity [21] was 100%. It also gave an inhibition [22] of 14.6%, a residual activity [23] of 100% and a residual activity [24] of 100%. For the same molecule, the residual activity [25] was 100%, the residual activity [26] was 100% and the residual activity [27] was 100%. For the same molecule, the residual activity [28] was 100%, the residual activity [29] was 100% and the residual activity [30] was 100%. The residual activity [31] was 100%, the residual activity [32] was 100% and the residual activity [33] was 100%. The residual activity [34] was 100%, the residual activity [35] was 100% and the residual activity [36] was 97%. It also gave a residual activity [37] of 100%.
